Laboratory results taken from ChEMBL document CHEMBL5143537, “Quinazoline-based hydroxamic acid derivatives as dual histone methylation and deacetylation inhibitors for potential anticancer agents” (Bioorg Med Chem, 2022).
The source made the active and inactive calls. No cut-off for these calls is given here.

Tests used:
[1] = test system: HepG2; test: Induction of apoptosis in human HepG2 cells assessed as viable cells at 20 uM measured after 48 hrs by Annexin V-FITC/propidium iodide staining based flow cytometry (reference value: 88.58%); assay type: functional; conditions: read-out: Activity
[2] = biological target: T1, Protein deacetylase HDAC6 (Homo sapiens, UniProt Q9UBN7); test: Inhibition of recombinant HDAC6 (unknown origin) using Ac-peptide-AMC as substrate preincubated for 15 mins followed by substrate addition and measured after 60 mins by fluorescence assay
T1 sequence (Q9UBN7 whole entry): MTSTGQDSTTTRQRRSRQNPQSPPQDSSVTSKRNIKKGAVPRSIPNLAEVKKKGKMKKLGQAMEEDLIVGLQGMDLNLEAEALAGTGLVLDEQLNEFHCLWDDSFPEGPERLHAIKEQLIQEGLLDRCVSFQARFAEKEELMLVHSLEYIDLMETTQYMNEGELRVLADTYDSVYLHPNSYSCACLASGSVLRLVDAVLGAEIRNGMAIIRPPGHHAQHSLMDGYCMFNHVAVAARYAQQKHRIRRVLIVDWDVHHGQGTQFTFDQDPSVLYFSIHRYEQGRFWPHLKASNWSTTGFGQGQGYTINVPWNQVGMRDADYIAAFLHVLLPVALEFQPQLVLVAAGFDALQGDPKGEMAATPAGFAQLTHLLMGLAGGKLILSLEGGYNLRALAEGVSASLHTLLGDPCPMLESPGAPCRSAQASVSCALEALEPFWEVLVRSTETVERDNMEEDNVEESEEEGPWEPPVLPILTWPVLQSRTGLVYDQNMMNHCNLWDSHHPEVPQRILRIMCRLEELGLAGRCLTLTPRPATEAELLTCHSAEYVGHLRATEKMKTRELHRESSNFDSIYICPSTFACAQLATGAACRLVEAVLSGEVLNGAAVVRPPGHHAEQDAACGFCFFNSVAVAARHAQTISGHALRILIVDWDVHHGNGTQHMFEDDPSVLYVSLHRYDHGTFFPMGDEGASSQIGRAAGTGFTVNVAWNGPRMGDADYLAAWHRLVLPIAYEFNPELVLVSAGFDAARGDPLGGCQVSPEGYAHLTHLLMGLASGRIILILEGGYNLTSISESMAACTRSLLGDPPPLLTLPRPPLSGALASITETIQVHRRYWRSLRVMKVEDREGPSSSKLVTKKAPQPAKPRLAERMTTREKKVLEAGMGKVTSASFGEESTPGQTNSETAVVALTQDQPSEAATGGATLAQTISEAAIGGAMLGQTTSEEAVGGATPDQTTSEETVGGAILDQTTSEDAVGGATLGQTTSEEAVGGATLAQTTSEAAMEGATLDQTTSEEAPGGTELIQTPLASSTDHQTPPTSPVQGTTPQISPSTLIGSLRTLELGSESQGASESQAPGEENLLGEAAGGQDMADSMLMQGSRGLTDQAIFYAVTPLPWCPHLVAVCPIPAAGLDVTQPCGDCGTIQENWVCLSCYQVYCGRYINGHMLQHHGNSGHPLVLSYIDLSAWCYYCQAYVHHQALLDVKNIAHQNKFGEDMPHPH

[3] = test system: HepG2; test: Cell cycle arrest in human HepG2 cells assessed as increase in p27 expression measured after 24 hrs by Western blot analysis; assay type: functional, cell-based; conditions: dose 1.25-20 µM, DDE = dose-dependent effect
[4] = test system: HepG2; test: Induction of apoptosis in human HepG2 cells assessed as viable cells at 10 uM measured after 48 hrs by Annexin V-FITC/propidium iodide staining based flow cytometry (reference value: 88.58%); assay type: functional; conditions: read-out: Activity
[5] = test system: HepG2; test: Antimigratory activity against human HepG2 cells measured after 24 hrs by wound healing assay; assay type: functional, cell-based; conditions: dose 1.5-5 µM, DDE = dose-dependent effect
[6] = Metabolic stability in rat liver microsomes assessed as parent compound remaining at 1 uM measured after 5 mins by LC-MS/MS analysis; assay type: ADME, Microsome; conditions: read-out: Stability
[7] = test system: HepG2; test: Cell cycle arrest in human HepG2 cells assessed as accumulation at S phase at 5 uM measured after 48 hrs by propidium iodide staining based flow cytometry (reference value: 32.39%); assay type: functional
[8] = test system: HepG2; test: Induction of apoptosis in human HepG2 cells assessed as increase in cleaved caspase-9 expression at 1.25 to 20 uM measured after 48 hrs by Western blot analysis; assay type: functional, cell-based; conditions: dose 1.25-20 µM
[9] = biological target: T2, Histone-lysine N-methyltransferase EHMT1 (Homo sapiens, UniProt Q9H9B1); test: Inhibition of GLP (unknown origin)
T2 sequence (Q9H9B1 whole entry): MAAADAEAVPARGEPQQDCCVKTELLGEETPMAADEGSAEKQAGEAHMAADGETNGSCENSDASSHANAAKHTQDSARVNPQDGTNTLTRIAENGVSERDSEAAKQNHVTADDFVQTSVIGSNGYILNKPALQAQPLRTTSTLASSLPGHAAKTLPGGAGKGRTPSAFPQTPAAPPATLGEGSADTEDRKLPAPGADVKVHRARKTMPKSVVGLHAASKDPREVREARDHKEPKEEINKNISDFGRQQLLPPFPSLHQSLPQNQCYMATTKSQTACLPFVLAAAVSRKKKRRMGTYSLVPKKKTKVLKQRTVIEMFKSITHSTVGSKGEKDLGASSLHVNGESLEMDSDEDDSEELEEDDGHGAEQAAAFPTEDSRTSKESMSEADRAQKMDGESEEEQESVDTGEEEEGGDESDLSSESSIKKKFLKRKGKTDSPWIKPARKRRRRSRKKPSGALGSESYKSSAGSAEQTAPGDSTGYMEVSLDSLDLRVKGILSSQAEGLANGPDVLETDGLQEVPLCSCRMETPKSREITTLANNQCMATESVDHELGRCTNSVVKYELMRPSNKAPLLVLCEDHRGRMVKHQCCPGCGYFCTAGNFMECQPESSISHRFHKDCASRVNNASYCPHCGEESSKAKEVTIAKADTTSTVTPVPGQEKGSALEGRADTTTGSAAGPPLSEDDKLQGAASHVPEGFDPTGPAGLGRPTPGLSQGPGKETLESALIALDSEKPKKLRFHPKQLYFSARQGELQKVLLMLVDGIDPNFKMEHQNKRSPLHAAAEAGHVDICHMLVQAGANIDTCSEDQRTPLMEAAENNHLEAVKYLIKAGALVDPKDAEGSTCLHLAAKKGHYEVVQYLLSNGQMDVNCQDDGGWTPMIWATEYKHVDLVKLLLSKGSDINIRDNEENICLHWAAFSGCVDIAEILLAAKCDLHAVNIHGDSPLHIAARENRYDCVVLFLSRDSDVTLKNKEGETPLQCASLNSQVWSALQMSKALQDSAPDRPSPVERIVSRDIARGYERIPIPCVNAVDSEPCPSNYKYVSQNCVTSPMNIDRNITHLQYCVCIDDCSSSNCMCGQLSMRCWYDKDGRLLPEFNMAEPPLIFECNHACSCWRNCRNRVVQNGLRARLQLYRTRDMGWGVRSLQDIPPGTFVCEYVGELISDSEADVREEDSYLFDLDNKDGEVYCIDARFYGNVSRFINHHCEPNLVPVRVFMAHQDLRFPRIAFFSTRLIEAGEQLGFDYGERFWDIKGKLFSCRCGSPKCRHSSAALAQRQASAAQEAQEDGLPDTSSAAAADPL

COc1cc2nc(N3CCN(CCCCCC(=O)NO)CC3)nc(NC3CCN(Cc4ccccc4)CC3)c2cc1OC
viability at 20 µM [1]: 33.1%
IC50 [2]: 13 nM
Activity [3]: Dde
viability at 10 µM [4]: 77.8%
Activity [5]: Dde
remaining at 5 min, 1 µM [6]: 81.1%
Activity [7]: 28.81%
Activity [8]: Active
IC50 [9]: 1.3 nM
